Data as given in ChEMBL document CHEMBL5291721, “A preclinical secondary pharmacology resource illuminates target-adverse drug reaction associations of marketed drugs” (Nat Commun, 2023).

How the values were obtained:
[1] = target: T1, Muscarinic acetylcholine receptor M1 (Homo sapiens, UniProt P11229); format: functional
T1 sequence (P11229 whole entry): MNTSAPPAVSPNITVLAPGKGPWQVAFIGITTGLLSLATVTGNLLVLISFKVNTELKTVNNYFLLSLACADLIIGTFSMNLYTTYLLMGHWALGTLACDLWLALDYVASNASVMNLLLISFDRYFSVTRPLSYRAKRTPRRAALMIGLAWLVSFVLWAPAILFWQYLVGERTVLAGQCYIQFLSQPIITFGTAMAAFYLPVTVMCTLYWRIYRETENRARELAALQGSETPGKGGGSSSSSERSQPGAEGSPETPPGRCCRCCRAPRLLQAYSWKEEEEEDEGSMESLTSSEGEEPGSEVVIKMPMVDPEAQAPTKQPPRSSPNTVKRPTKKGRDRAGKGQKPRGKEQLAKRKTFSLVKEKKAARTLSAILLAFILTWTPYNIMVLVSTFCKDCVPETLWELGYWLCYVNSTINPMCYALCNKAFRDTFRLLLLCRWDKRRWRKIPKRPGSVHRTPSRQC

Melanocortin receptor 3 = Melanocortin receptor 3 (Homo sapiens, UniProt P41968)
Sequence of Melanocortin receptor 3 (P41968 whole entry): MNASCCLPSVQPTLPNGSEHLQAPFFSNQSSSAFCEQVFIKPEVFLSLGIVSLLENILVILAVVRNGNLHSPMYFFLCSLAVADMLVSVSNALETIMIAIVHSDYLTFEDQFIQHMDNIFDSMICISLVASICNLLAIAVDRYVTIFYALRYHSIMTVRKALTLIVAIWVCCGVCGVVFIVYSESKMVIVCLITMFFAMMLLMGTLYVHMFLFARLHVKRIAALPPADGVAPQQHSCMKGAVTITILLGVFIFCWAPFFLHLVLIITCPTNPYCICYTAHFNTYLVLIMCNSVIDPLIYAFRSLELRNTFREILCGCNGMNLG

Adenosine receptor A3 = target: T2, Adenosine receptor A3 (Homo sapiens, UniProt P0DMS8)
T2 sequence (P0DMS8 whole entry): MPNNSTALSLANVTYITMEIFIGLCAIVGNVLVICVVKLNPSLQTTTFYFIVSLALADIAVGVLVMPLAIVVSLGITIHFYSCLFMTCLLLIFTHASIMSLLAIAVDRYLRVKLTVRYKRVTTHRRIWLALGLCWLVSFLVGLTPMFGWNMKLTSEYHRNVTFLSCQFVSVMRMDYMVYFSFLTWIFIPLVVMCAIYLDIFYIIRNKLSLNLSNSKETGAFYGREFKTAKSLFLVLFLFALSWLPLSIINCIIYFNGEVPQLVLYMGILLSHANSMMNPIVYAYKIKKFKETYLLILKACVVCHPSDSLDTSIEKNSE

[2] = target: T3, Amine oxidase [flavin-containing] A (Homo sapiens, UniProt P21397); format: functional
T3 sequence (P21397 whole entry): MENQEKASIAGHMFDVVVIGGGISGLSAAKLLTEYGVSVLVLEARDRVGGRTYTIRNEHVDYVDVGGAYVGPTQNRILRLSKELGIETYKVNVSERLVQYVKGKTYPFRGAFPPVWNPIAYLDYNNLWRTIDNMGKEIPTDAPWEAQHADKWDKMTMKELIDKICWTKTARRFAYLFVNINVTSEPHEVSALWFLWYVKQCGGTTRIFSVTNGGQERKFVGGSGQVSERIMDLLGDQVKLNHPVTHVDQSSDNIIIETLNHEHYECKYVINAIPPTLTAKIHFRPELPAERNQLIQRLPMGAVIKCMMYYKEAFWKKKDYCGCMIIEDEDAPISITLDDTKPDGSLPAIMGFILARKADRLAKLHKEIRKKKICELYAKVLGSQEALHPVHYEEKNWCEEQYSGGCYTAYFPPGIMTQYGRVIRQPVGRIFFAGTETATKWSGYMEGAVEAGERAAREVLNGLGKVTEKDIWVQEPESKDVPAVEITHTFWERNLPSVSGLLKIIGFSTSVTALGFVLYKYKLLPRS

[3] = target: 3',5'-cyclic-AMP phosphodiesterase 4A (Homo sapiens, UniProt P27815); format: functional
Sequence of 3',5'-cyclic-AMP phosphodiesterase 4A (P27815 whole entry): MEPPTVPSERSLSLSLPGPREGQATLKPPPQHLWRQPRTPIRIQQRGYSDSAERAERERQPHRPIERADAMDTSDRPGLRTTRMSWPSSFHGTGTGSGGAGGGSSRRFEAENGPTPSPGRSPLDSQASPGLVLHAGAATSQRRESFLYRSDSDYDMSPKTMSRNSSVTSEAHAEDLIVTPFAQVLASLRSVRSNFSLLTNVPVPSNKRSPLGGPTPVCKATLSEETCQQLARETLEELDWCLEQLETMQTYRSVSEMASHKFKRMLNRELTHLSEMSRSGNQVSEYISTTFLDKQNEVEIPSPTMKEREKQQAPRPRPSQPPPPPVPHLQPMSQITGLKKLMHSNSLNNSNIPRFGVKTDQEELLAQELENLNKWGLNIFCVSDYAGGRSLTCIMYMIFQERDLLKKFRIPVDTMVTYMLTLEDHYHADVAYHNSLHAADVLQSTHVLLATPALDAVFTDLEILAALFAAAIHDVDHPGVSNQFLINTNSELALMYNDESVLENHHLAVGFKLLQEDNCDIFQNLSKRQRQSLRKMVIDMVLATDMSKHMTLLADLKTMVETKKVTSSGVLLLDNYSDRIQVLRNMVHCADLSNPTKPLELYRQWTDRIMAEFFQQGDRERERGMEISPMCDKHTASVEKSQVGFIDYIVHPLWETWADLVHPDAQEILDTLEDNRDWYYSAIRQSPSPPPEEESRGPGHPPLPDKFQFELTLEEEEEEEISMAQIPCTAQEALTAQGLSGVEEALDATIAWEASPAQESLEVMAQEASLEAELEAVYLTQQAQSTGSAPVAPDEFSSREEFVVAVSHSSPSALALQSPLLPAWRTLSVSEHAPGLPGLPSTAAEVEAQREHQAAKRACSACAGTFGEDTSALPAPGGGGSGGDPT

D(1A) dopamine receptor = D(1A) dopamine receptor (Homo sapiens, UniProt P21728); format: functional, cell-based
Sequence of D(1A) dopamine receptor (P21728 whole entry): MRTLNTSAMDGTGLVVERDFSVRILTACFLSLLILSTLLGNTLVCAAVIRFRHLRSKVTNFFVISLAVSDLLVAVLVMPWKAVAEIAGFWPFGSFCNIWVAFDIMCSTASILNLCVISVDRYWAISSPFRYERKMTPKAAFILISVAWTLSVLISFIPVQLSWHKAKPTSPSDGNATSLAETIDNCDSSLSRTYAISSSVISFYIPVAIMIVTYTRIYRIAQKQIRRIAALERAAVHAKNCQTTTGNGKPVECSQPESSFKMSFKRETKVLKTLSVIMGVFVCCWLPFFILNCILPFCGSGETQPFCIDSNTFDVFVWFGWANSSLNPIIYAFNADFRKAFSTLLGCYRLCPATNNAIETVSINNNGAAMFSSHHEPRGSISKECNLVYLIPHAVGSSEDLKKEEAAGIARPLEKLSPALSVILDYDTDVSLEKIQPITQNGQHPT

[4] = target: T4, Alpha-2A adrenergic receptor (Homo sapiens, UniProt P08913); format: functional, cell-based
T4 sequence (P08913 whole entry): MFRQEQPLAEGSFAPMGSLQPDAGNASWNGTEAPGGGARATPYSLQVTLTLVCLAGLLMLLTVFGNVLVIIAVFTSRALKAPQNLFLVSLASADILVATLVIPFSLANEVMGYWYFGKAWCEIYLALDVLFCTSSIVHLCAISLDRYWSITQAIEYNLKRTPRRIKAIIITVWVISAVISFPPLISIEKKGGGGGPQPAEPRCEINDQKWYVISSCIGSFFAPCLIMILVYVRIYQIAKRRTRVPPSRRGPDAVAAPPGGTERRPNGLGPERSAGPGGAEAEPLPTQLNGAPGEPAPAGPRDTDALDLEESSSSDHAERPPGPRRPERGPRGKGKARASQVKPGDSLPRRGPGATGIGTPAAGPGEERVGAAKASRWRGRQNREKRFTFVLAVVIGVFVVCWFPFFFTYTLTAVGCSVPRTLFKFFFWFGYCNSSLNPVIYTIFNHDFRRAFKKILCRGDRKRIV

[5] = target: T4, Alpha-2A adrenergic receptor; format: functional, cell-based; remark: listed apart in the source
[6] = target: Gamma-aminobutyric acid receptor subunit alpha-1 (Rattus norvegicus, UniProt P62813); format: functional
Sequence of Gamma-aminobutyric acid receptor subunit alpha-1 (P62813 whole entry): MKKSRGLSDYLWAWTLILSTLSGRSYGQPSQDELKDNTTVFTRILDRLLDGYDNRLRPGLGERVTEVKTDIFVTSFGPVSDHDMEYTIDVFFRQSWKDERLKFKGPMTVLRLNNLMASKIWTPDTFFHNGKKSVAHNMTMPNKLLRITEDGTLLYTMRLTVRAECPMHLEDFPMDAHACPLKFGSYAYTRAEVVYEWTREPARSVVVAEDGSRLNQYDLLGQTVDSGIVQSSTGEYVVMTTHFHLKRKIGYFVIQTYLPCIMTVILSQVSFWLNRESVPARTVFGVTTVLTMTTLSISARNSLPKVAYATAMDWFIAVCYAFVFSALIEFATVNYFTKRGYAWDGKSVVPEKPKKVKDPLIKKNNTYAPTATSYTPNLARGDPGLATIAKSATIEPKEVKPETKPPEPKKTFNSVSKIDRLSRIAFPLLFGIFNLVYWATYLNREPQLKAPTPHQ

[7] = target: T5, Alpha-2B adrenergic receptor (Homo sapiens, UniProt P18089)
T5 sequence (P18089 whole entry): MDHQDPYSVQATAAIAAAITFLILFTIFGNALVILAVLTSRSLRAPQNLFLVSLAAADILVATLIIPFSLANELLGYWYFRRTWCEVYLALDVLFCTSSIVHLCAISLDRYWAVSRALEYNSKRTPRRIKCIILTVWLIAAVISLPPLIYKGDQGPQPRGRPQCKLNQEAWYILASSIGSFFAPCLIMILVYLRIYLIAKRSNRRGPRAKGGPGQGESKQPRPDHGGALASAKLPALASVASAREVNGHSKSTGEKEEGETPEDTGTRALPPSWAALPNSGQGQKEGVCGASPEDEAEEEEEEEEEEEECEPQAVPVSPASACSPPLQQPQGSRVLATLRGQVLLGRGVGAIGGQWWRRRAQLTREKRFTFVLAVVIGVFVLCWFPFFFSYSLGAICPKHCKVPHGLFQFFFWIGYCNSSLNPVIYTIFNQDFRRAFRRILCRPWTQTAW
Further: assay procedure not described here.

Structure (SMILES)	AC50 [1] [µM]	AC50 (Melanocortin receptor 3) [µM]	AC50 (Adenosine receptor A3) [µM]	AC50 [2] [µM]	AC50 [3] [µM]	AC50 (D(1A) dopamine receptor) [µM]	AC50 [4] [µM]	AC50 [5] [µM]	AC50 [6] [µM]	AC50 [7] [µM]
O=C(O)c1cccc(-c2noc(-c3ccccc3F)n2)c1	> 10	> 30	> 30	5.3	> 30					
CO/N=C(\C(=O)N[C@@H]1C(=O)N2C(C(=O)OCOC(=O)C(C)(C)C)=C(C)CS[C@H]12)c1csc(N)n1	> 30			> 30	> 30	> 30	> 30	> 30	> 30	> 30
NS(=O)(=O)c1cc(-c2nnn[nH]2)c(NCc2cccs2)cc1Cl [AZOSEMIDE]	> 30	> 30	> 30	> 30		> 30	> 30	> 30	> 30	> 30
C[N+](C)(C)CC(=O)O [BETAINE]	> 30	> 30	> 30	> 30		> 30	> 30	> 30	> 30	> 30
CCCC(=O)N1CCCN(c2nc(N)c3cc(OC)c(OC)cc3n2)CC1 [BUNAZOSIN]	> 30	> 30	> 30	> 30		> 30	11	> 30	> 30	1.7
N[C@@H](CSCC(=O)O)C(=O)O [CARBOCYSTEINE]	> 30	> 30	> 30	> 30		> 30	> 30	> 30	> 30	> 30
COCC1=C(C(=O)OC(C)OC(=O)OC(C)C)N2C(=O)[C@@H](NC(=O)/C(=N\OC)c3csc(N)n3)[C@H]2SC1 (some centres undefined) [CEFPODOXIME PROXETIL]	> 30			> 30	> 30	> 30	> 30	> 30	> 30	> 30
CC(C)(N)Cc1ccc(Cl)cc1 [CHLORPHENTERMINE]	> 10	> 30	> 30	> 10		> 10	> 10	> 10	> 10	> 10
NS(=O)(=O)c1cc2c(cc1Cl)NC(CC1CCCC1)NS2(=O)=O (centres undefined) [CYCLOPENTHIAZIDE]	> 30			> 30	> 30	> 30	> 30	> 30	> 30	17
CN(C)[C@@H]1C(O)=C(C(N)=O)C(=O)[C@@]2(O)C(O)=C3C(=O)c4c(O)ccc(Cl)c4[C@@H](O)[C@H]3C[C@@H]12 [DEMECLOCYCLINE]	> 10	> 10	> 10	> 10		> 10	> 10	> 10	> 10	> 10
NS(=O)(=O)c1cc(Cl)c(Cl)c(S(N)(=O)=O)c1 [DICHLORPHENAMIDE]	> 10	> 10	> 10	> 10		> 10	> 10	> 10	> 10	> 10
N/N=c1/cc2c(n[nH]1)CCN(C(=O)c1ccccc1)C2 [ENDRALAZINE]	> 30			> 30	> 30	> 30	> 30	> 30	> 30	> 30
C=C1C[C@@H]2[C@H](CC[C@]3(C)C(=O)CC[C@@H]23)[C@@]2(C)C=CC(=O)C=C12 [EXEMESTANE]	> 10	> 30	> 30	> 10		> 10	> 10	> 10	> 10	> 10
CC(C(O)c1ccc(O)cc1)N1CCC(Cc2ccccc2)CC1 (centres undefined) [IFENPRODIL]	> 30	> 30	> 30	> 30		> 30	3.8	> 30	> 30	0.44
CS(=O)(=O)Nc1cc2occ(NC=O)c(=O)c2cc1Oc1ccccc1 [IGURATIMOD]	> 30	> 30	> 30	> 30	1.75					
CC(=O)N(CC(O)CO)c1c(I)c(C(=O)NCC(O)CO)c(I)c(C(=O)NCC(O)CO)c1I (centres undefined) [IOHEXOL]	> 10	> 30	> 30	> 10		> 10	> 10	> 10	> 10	> 10
CN(CCCN1c2ccccc2CCc2ccccc21)CC(=O)c1ccc(Cl)cc1 [LOFEPRAMINE]		> 30	18			> 30	> 30	> 30	> 30	4
CN1C(=O)N(C)C2C1N(C)C(=O)N2C (centres undefined) [MEBICAR]	> 30			> 30	> 30	> 30	> 30	> 30	> 30	> 30
CN(C/C=C/c1ccccc1)Cc1cccc2ccccc12 [NAFTIFINE]	> 10	> 30	> 30	> 10		> 10	> 10	> 10	> 10	> 10
CC(C)NCC1CCc2cc(CO)c([N+](=O)[O-])cc2N1 (centres undefined) [OXAMNIQUINE]	> 10	> 10	> 10	> 10		> 10	> 10	> 10	> 10	> 10
CC(=O)N[C@H]1[C@H]([C@H](O)[C@H](O)CO)OC(C(=O)O)=C[C@@H]1N=C(N)N [ZANAMIVIR]	> 30	> 30	> 30	> 30		> 30	> 10	> 10	> 10	> 30
